The source of these data is US12065442B2, “Tropomyosin receptor kinase (TRK) degradation compounds and methods of use” (Cullgen (Shanghai), Inc., priority 2018, dated 2024).

One may read the IC50 as the point on the concentration scale where inhibition reaches its midpoint.

Each structure is given as a SMILES string. Where only a bound is given, the exact number is not on record here.

The subject of one test is KM12 cells. In words: Cell viability assay (CellTiter-Glo) in KM12 cells. The format is cell-based. The note with it: Homo sapiens, 72 h; Table 2; KM12 cell viability, CellTiter-Glo, 3 days; read-out: IC50.
`Cc1ncsc1-c1ccc(CNC(=O)[C@@H]2C[C@@H](O)CN2C(=O)[C@@H](NC(=O)CCCCCCCC(=O)N2CCN(c3cccc(-c4cnc5ccc(N6CCC[C@@H]6c6cccc(F)c6)nn45)n3)CC2)C(C)(C)C)cc1` [CPD-018, (2S,4R)-1-((S)-2-(9-(4-(6-(6-((R)-2-(3-Fluorophenyl)pyrrolidin-1-yl)imidazo[1,2-b]pyridazin-3-yl)pyridin-2-yl)piperazin-1-yl)-9-oxononanamido)-3,3-dimethylbutanoyl)-4-hydroxy-N-(4-(4-methylthiazol-5-yl)benzyl)pyrrolidine-2-carboxamide]: the IC50 was determined as 258 nM.

For the molecule `Cc1ncsc1-c1ccc(CNC(=O)[C@@H]2C[C@@H](O)CN2C(=O)[C@@H](NC(=O)COCCOCC(=O)N2CCN(c3cccc(-c4cnc5ccc(N6CCC[C@@H]6c6cccc(F)c6)nn45)n3)CC2)C(C)(C)C)cc1` [CPD-002, (2S,4R)-1-((S)-2-(2-(2-(2-(4-(6-(6-((R)-2-(3-Fluorophenyl)pyrrolidin-1-yl)imidazo[1,2-b]pyridazin-3-yl)pyridin-2-yl)piperazin-1-yl)-2-oxoethoxy)ethoxy)acetamido)-3,3-dimethylbutanoyl)-4-hydroxy-N-(4-(4-methylthiazol-5-yl)benzyl)pyrrolidine-2-carboxamide], the IC50 is > 1000 nM.

Regarding `Cc1ncsc1-c1ccc(CNC(=O)[C@@H]2C[C@@H](O)CN2C(=O)[C@@H](NC(=O)CCOCCOCCOCCC(=O)N2CCN(c3ccc(C(=O)Nc4n[nH]c5ccc(Cc6cc(F)cc(F)c6)cc45)c(NC4CCOCC4)c3)CC2)C(C)(C)C)cc1` [CPD-039, (2S,4R)-1-((S)-2-(tert-butyl)-16-(4-(4-((5-(3,5-Difluorobenzyl)-1H-indazol-3-yl)carbamoyl)-3-((tetrahydro-2H-pyran-4-yl)amino)phenyl)piperazin-1-yl)-4,16-dioxo-7,10,13-trioxa-3-azahexadecanoyl)-4-hydroxy-N-(4-(4-methylthiazol-5-yl)benzyl)pyrrolidine-2-carboxamide], the IC50 was 222 nM.

Staying with this test, now noted: Homo sapiens, 72 h; Table 3; KM12 cell viability, CellTiter-Glo, 3 days; read-out: IC50.
With `O=C(CN1CCN(c2cccc(-c3cnc4ccc(N5CCC[C@@H]5c5cccc(F)c5)nn34)n2)CC1)NCCCCNc1cccc2c1C(=O)N(C1CCC(=O)NC1=O)C2=O` (stereo partly drawn) [TR-107, N-(4-((2-(2,6-dioxopiperidin-3-yl)-1,3-dioxoisoindolin-4-yl)amino)butyl)-2-(4-(6-(6-((R)-2-(3-fluorophenyl)pyrrolidin-1-yl)imidazo[1,2-b]pyridazin-3-yl)pyridin-2-yl)piperazin-1-yl)acetamide], the IC50 is 8.4 nM.

As for `O=C(CN1CCN(c2ccc(C(=O)Nc3n[nH]c4ccc(Cc5cc(F)cc(F)c5)cc34)c(NC3CCOCC3)c2)CC1)NCCCCCCCNc1cccc2c1C(=O)N(C1CCC(=O)NC1=O)C2=O` (centres unmarked) [TR-154, N-(5-(3,5-Difluorobenzyl)-1H-indazol-3-yl)-4-(4-(2-((7-((2-(2,6-dioxopiperidin-3-yl)-1,3-dioxoisoindolin-4-yl)amino)heptyl)amino)-2-oxoethyl)piperazin-1-yl)-2-((tetrahydro-2H-pyran-4-yl)amino)benzamide], the IC50 came to 20.8 nM.

`O=C1CCC(N2C(=O)c3ccc(NC4CCN(c5cccc(-c6cnc7ccc(N8CCC[C@@H]8c8cccc(F)c8)nn67)n5)CC4)cc3C2=O)C(=O)N1` (stereo partly drawn) [TR-174, 2-(2,6-dioxopiperidin-3-yl)-5-((1-(6-(6-((R)-2-(3-fluorophenyl)pyrrolidin-1-yl)imidazo[1,2-b]pyridazin-3-yl)pyridin-2-yl)piperidin-4-yl)amino)isoindoline-1,3-dione]: the IC50 amounted to 18.7 nM.

In the case of `O=C1CCC(N2C(=O)c3ccc(NCCOCCOCCOCCOCCOCCC(=O)N4CCN(c5ccc(C(=O)Nc6n[nH]c7ccc(Cc8cc(F)cc(F)c8)cc67)c(NC6CCOCC6)c5)CC4)cc3C2=O)C(=O)N1` (centres unmarked) [TR-137, N-(5-(3,5-Difluorobenzyl)-1H-indazol-3-yl)-4-(4-(1-((2-(2,6-dioxopiperidin-3-yl)-1,3-dioxoisoindolin-5-yl)amino)-3,6,9,12,15-pentaoxaoctadecan-18-oyl)piperazin-1-yl)-2-((tetrahydro-2H-pyran-4-yl)amino)benzamide], the IC50 came out at 2.5 nM.

`O=C(CN1CCN(c2cccc(-c3cnc4ccc(N5CCC[C@@H]5c5cccc(F)c5)nn34)n2)CC1)NCCOCCNc1ccc2c(c1)C(=O)N(C1CCC(=O)NC1=O)C2=O` (stereo partly drawn) [TR-135, N-(2-(2-((2-(2,6-dioxopiperidin-3-yl)-1,3-dioxoisoindolin-5-yl)amino)ethoxy)ethyl)-2-(4-(6-(6-((R)-2-(3-fluorophenyl)pyrrolidin-1-yl)imidazo[1,2-b]pyridazin-3-yl)pyridin-2-yl)piperazin-1-yl)acetamide]: the IC50 is 0.9 nM.

As for `O=C1CCC(N2C(=O)c3ccc(NCCCCCC(=O)N4CCN(c5ccc(C(=O)Nc6n[nH]c7ccc(Cc8cc(F)cc(F)c8)cc67)c(NC6CCOCC6)c5)CC4)cc3C2=O)C(=O)N1` (centres unmarked) [TR-138, N-(5-(3,5-Difluorobenzyl)-1H-indazol-3-yl)-4-(4-(6-((2-(2,6-dioxopiperidin-3-yl)-1,3-dioxoisoindolin-5-yl)amino)hexanoyl)piperazin-1-yl)-2-((tetrahydro-2H-pyran-4-yl)amino)benzamide], the IC50 came to 31.1 nM.

For `O=C(CN1CCN(c2cccc(-c3cnc4ccc(N5CCC[C@@H]5c5cccc(F)c5)nn34)n2)CC1)NCCCNc1cccc2c1C(=O)N(C1CCC(=O)NC1=O)C2=O` (stereo partly drawn) [TR-109, N-(3-((2-(2,6-dioxopiperidin-3-yl)-1,3-dioxoisoindolin-4-yl)amino)propyl)-2-(4-(6-(6-((R)-2-(3-fluorophenyl)pyrrolidin-1-yl)imidazo[1,2-b]pyridazin-3-yl)pyridin-2-yl)piperazin-1-yl)acetamide], the IC50 is 3.6 nM.

As to `O=C(CN1CCN(c2ccc(C(=O)Nc3n[nH]c4ccc(Cc5cc(F)cc(F)c5)cc34)c(NC3CCOCC3)c2)CC1)NCCOCCOCCOCCOCCOCCNc1ccc2c(c1)C(=O)N(C1CCC(=O)NC1=O)C2=O` (centres unmarked) [TR-166, N-(5-(3,5-Difluorobenzyl)-1H-indazol-3-yl)-4-(4-(20-((2-(2,6-dioxopiperidin-3-yl)-1,3-dioxoisoindolin-5-yl)amino)-2-oxo-6,9,12,15,18-pentaoxa-3-azaicosyl)piperazin-1-yl)-2-((tetrahydro-2H-pyran-4-yl)amino)benzamide], the IC50 stood at 4.4 nM.

As for `O=C(CN1CCN(c2ccc(C(=O)Nc3n[nH]c4ccc(Cc5cc(F)cc(F)c5)cc34)c(NC3CCOCC3)c2)CC1)NCCOCCOCCOCCOCCNc1cccc2c1C(=O)N(C1CCC(=O)NC1=O)C2=O` (centres unmarked) [TR-150, N-(5-(3,5-Difluorobenzyl)-1H-indazol-3-yl)-4-(4-(17-((2-(2,6-dioxopiperidin-3-yl)-1,3-dioxoisoindolin-4-yl)amino)-2-oxo-6,9,12,15-tetraoxa-3-azaheptadecyl)piperazin-1-yl)-2-((tetrahydro-2H-pyran-4-yl)amino)benzamide], the IC50 stood at 16.6 nM.

Regarding `O=C(CN1CCN(c2cccc(-c3cnc4ccc(N5CCC[C@@H]5c5cccc(F)c5)nn34)n2)CC1)NCCOCCOCCNc1cccc2c1C(=O)N(C1CCC(=O)NC1=O)C2=O` (stereo partly drawn) [TR-105, N-(2-(2-(2-((2-(2,6-dioxopiperidin-3-yl)-1,3-dioxoisoindolin-4-yl)amino)ethoxy)ethoxy)ethyl)-2-(4-(6-(6-((R)-2-(3-fluorophenyl)pyrrolidin-1-yl)imidazo[1,2-b]pyridazin-3-yl)pyridin-2-yl)piperazin-1-yl)acetamide], the IC50 stood at 10.1 nM.

The same test, now with this note: Homo sapiens, 72 h; Table 4; KM12 cell viability, CellTiter-Glo, 3 days; read-out: IC50.
Take `Cn1c(=O)n(C2CCC(=O)NC2=O)c2ccc(NCCCN3CCN(c4cccc(-c5cnc6ccc(N7CCC[C@@H]7c7cccc(F)c7)nn56)n4)CC3)cc21` (stereo partly drawn) [TR-221, 3-(5-((3-(4-(6-(6-((R)-2-(3-Fluorophenyl)pyrrolidin-1-yl)imidazo[1,2-b]pyridazin-3-yl)pyridin-2-yl)piperazin-1-yl)propyl)amino)-3-methyl-2-oxo-2,3-dihydro-1H-benzo[d]imidazol-1-yl)piperidine-2,6-dione]: the IC50 is 8.5 nM.

Consider `O=C1CCC(N2C(=O)Cc3c(NCCN4CCN(c5cccc(-c6cnc7ccc(N8CCC[C@@H]8c8cccc(F)c8)nn67)n5)CC4)cccc32)C(=O)N1` (stereo partly drawn) [TR-236, 3-(4-((2-(4-(6-(6-((R)-2-(3-Fluorophenyl)pyrrolidin-1-yl)imidazo[1,2-b]pyridazin-3-yl)pyridin-2-yl)piperazin-1-yl)ethyl)amino)-2-oxoindolin-1-yl)piperidine-2,6-dione], for which the IC50 came out at 99 nM.

Take `O=C1CCC(N2C(=O)c3ccc(CN4CC(N5CCN(c6cccc(-c7cnc8ccc(N9CCC[C@@H]9c9cccc(F)c9)nn78)n6)CC5)C4)cc3C2=O)C(=O)N1` (stereo partly drawn) [TR-237, 2-(2,6-dioxopiperidin-3-yl)-5-((3-(4-(6-(6-((R)-2-(3-fluorophenyl)pyrrolidin-1-yl)imidazo[1,2-b]pyridazin-3-yl)pyridin-2-yl)piperazin-1-yl)azetidin-1-yl)methyl)isoindoline-1,3-dione]: the IC50 worked out at 138 nM.

As for `O=C1CCC(N2C(=O)c3ccc(N4CCC(CN5CCN(c6cccc(-c7cnc8ccc(N9CCC[C@@H]9c9cccc(F)c9)nn78)n6)CC5)CC4)cc3C2=O)C(=O)N1` (stereo partly drawn) [TR-226, 2-(2,6-Dioxopiperidin-3-yl)-5-(4-((4-(6-(6-((R)-2-(3-fluorophenyl)pyrrolidin-1-yl)imidazo[1,2-b]pyridazin-3-yl)pyridin-2-yl)piperazin-1-yl)methyl)piperidin-1-yl)isoindoline-1,3-dione], the IC50 was found to be 13.8 nM.
